Test results taken from PMC4967898, “Peptides interfering with protein-protein interactions in the ethylene signaling pathway delay tomato fruit ripening” (Scientific Reports, 2016).
pIC50: −log10 of the molar value. Entries after “also recorded” stand apart in the source; their conditions may differ.

Columns and labels:
[1] = Fluorescence of the dyes on their own (FRET control); details: 100 μM peptide; free dyes
Excerpt: For this purpose, we made use of a fluorescence resonance energy transfer (FRET)-based in vitro assay, originally established for the respective Arabidopsis signaling proteins. Recombinant ethylene proteins LeETR1 and LeEIN2^462–1316 were labeled with fluorescent Alexa dyes[36] as described in the Methods section. LeETR1 was labeled with Alexa Fluor 488, while LeEIN2^462–1316 was labeled with Alexa Fluor 568. As the emission spectrum of the donor fluorophore partially overlaps with the excitation spectrum of the acceptor fluorophore, the dyes form a FRET pair and energy transfer from the donor to the acceptor fluorophore is possible when both probes get in close proximity. […] Formation of the complex is monitored by FRET from the donor molecule Alexa Fluor 488 to the acceptor molecule Alexa Fluor 568. Processes or molecules that prevent complex formation result in a reduced FRET from the donor to the acceptor, which is detected as reduced acceptor fluorescence at the emission maximum.
(b) Calculation of IC50 value for NOP-1. Data were obtained in the FRET-assay in presence of increasing concentrations of NOP-1 peptide. […] (c) Determination of Kd value of NOP-1 binding to LeETR1 based on MST is illustrated. MST-signal is plotted against the NOP-1 concentration. […] All data (a,b,c) represent the mean +/− standard deviation.

[2] = test system: climacteric tomato fruits; experiment: Real-time monitoring of ethylene production of tomato fruits (laser-based ethylene detector); format: in vivo, tomato (Solanum pimpinellifolium)
Experimental: (§1) Aminoethoxyvinyl glycine (AVG) was purchased from Sigma-Aldrich, St Louis, MO (purity ~95%). SmartFresh^SM (AgroFresh, Spring House, PA) was used as sugar-based powder formulation of 1-MCP. Concentration of 1-MCP was calculated according to the percentage of active ingredient (0.14%) and release from the SmartFresh^SM powder. For comparison concentration of all inhibitors are expressed in terms of molarity. For treatment of tomato fruits with NOP-1, AVG and MCP, inhibitors were dissolved in the FRET buffer described in the previous section to a final concentration of 200 μM. Green tomato fruits (Solanum pimpinellifolium) from the same estimated developmental stage were harvested from the panicle and water-cleaned. 300 μL of the inhibitor solution was applied onto the tomato surface with a brush and the fruits were air-dried for 30 min. As an alternative application, tomato fruits were plunged into 2 mL of the inhibitor solution and incubated for 30 min in this solution or 200 μL of the peptide-containing solution were carefully injected into the tomato tissue by a hypodermic syringe. Three individual tomato fruits were treated for the different applications of the peptide in order to document the ripening process. After inhibitor-treatment tomato fruits were transferred to a vial closed with aluminum foil and stored in the dark at room temperature. Maturation process was documented every second day for at least 20 days. For measurement of ethylene production, green tomato fruits were treated as described above.
Real-time monitoring of ethylene production
Ethylene production was continuously monitored over 19 days with a laser-based ethylene detector (ETD-300; Sensor Sense BV; Nijmegen, Netherlands). A detailed description of the system has been given elsewhere. Briefly, the detector consists of a laser emitting radiation in the 10 micrometers infrared wavelength region and a photoacoustic cell, in which ethylene is detected due to its strong fingerprint-like absorption pattern in this region. Inside the photoacoustic cell ethylene can absorb the laser radiation and converts it into kinetic energy by energy exchange processes, resulting in local heating of the sample. By switching on and off the light, rapid heating/cooling can occur, giving rise to a periodical pressure change, i.e. sound wave. The amplitude of these waves is directly proportional to the concentration of ethylene in the photoacoustic cell and can be detected very accurately with sensitive miniature microphones.
Six tomato fruits for each treatment, including an untreated group (buffer control, CT) were placed into glass cuvettes (150 ml volume) and connected to a gas flow through system (VC-6, Sensor Sense BV; Nijmegen, Netherlands) under a continuous flow routine as described in Ref. [58]. The […] ensured that the samples were continuously flushed with air at a constant flow of 2 l/h and allowed automated sampling of ethylene from the headspace of six cuvettes. Each cuvette was alternatively connected to the ETD-300 and ethylene emitted in the headspace was measured for 12 min. […] The ethylene production was related to the emission rate by multiplying the measured value with the flow rate (expressed in nanoliters per hour, nl/h) and further normalized with the fresh weight (expressed in grams, gFW); the end result being nanoliters per hour per gram of fresh weight, nl/h∙gFW.

living plants = details: cited from earlier work
Arabidopsis EIN2-ETR1 = details: proteins from Arabidopsis, cited from earlier work
Excerpt: Studies on the related tomato proteins in this work emphasize that NOP-1 follows the same inhibitory mechanism also in other plants.

[3] = test system: green, immature tomato fruits; experiment: Tomato fruit ripening after inhibitor treatment; format: in vivo, tomato (Solanum pimpinellifolium)
Excerpt: To further investigate the potential of NOP-1 for agricultural applications, we tested the effect of the NOP-1 peptide on tomato fruit ripening in comparison to other known inhibitors of ethylene responses. To this end we tested […] (MCP) and aminoethoxyvinylglycine (AVG). MCP is a known inhibitor of ethylene signaling blocking ethylene binding at the receptor proteins, whereas AVG blocks ethylene production in the plant by competitive inhibition of ACC synthases. To monitor inhibition of the fruit ripening process, we treated green, immature tomato fruits with 200 μM NOP-1, MCP or AVG, respectively and documented the fruit ripening process for 20 days. Figure 3 compares the effect of the different inhibitor treatments on tomato fruits to controls lacking the inhibitory treatment that contain either buffer alone or a random sequence control peptide (ROP-1). […] The bioassays underline the high inhibitory potential of NOP-1 on the ripening process compared to the well-known and efficient inhibitors of ethylene responses.
Inhibitor-treatment of tomato fruits
as §1

For CC(C)C[C@H](NC(=O)[C@H](CCCNC(=N)N)NC(=O)[C@H](CCCNC(=N)N)NC(=O)[C@H](CCCCN)NC(=O)[C@H](Cc1ccc(O)cc1)NC(=O)[C@H](CCCNC(=N)N)NC(=O)[C@H](CCCCN)NC(=O)[C@@H](N)CC(C)C)C(N)=O [NOP-1, LKRYKRRL-NH2], the “effect on fluorescence of the dyes on their own” value [1] was “not affected by the peptides; also recorded: Neither of both peptides affected fluorescence of the free, unlabeled dyes”, the “time of ethylene production peak, injected or incubated fruits” value ([2]; 200 μM NOP-1, injected or incubated) was 6 to 8 days and the “initial ethylene burst in injected fruits” value ([2]; 200 μM NOP-1, injected, attributed to wounding) was “ethylene burst detected in the injected fruits; also recorded: initial burst in ethylene production within the first hours”. For the same compound, the “time of ethylene production peak, surface-treated fruits” value ([2]; 200 μM NOP-1, surface-treated, same time as control fruits) was about 12 days, the “ethylene production compared with controls (in words)” value ([2]; 200 μM NOP-1, surface treatment, injection, incubation, versus untreated fruits and buffer control, six fruits per treatment, 21 °C, dark) was “do not significantly differ from controls; also recorded: No reduction in ethylene production is evident; also recorded: modest increase rather than an inhibition of ethylene production” and the “Ethylene production over 18 days (total ethylene release, average of applications)” value ([2]; fruits treated with 200 μM NOP-1, average of surface-application, incubation and injection, injected fruits corrected for initial ethylene burst, six fruits per treatment, 21 °C, dark) was 616 +/- 46 nl/gFW. The “inhibition of ethylene responses in living plants” value (living plants) was “potent inhibitor of ethylene responses in living plants”, the “effect on EIN2-ETR1 interaction in Arabidopsis” value (Arabidopsis EIN2-ETR1) was “reduced or abolished EIN2-ETR1 interaction; also recorded: able to disrupt interaction of EIN2 and ETR1” and the pIC50 (Arabidopsis EIN2-ETR1; read-out: IC50 for inhibition of EIN2-ETR1 interaction in Arabidopsis) was 4.03. The “delay in fruit ripening (Fig. 3c)” value ([3]; 200 μM, surface-treated, incubated or injected, versus untreated fruits) was “at least 5 days”, the “delay in maturation of tomato fruits” value ([3]; 200 μM, all tested inhibitors and all applications of NOP-1 (injection, incubation, surface application), documented for 20 days, three fruits per application) was 10 to 15 days and the “delay in maturation by application form (in words)” value ([3]; 200 μM, surface application compared with incubation and injection) was “Delay in maturation process is most evident for fruit surface application”. The “effect on tomato fruit ripening (in words)” value ([3]; compared with buffer or untreated control, inhibitors at 200 μM) was “delays ripening similar to known inhibitors of ethylene perception (MCP) and ethylene biosynthesis (AVG)”, the “penetration of fruit surface / uptake (in words)” value ([3]; inferred from ripening delay after surface application, 200 μM) was “can easily penetrate the surface tissue of the tomatoes and is taken up by the fruits; also recorded: seems to penetrate the exocarp and is taken up by the fruits” and the “delay in ripening by injection (in words)” value ([3]; injection into the fruits, initial experiments) was “less pronounced delay in ripening”. The “delay in fruit ripening (Fig. 3a)” value ([3]; surface-treated, 200 μM, versus untreated control fruits) was “at least 15 days”.
